According to ChEMBL document CHEMBL1201862, “PubChem BioAssay data set” (2004):
Calls of active or inactive are those of the source.

Key:
[1] = target: Peroxisome proliferator-activated receptor gamma/Nuclear receptor coactivator 1 (Homo sapiens, UniProt P37231); assay type: functional;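 further: agonist potency as compounds enhance coactivator SRC-1 recruitment to PPARgamma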
[2] = target: Peroxisome proliferator-activated receptor gamma/Nuclear receptor coactivator 2 (Homo sapiens, UniProt P37231); assay type: functional;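 further: agonist potency for raising coactivator recruitment to the receptor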
[3] = target: Peroxisome proliferator-activated receptor gamma/Nuclear receptor coactivator 3 (Homo sapiens, UniProt P37231); assay type: functional;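 further: agonist potency for raising coactivator recruitment to the receptor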
[4] = SNU-C1 cell viability reduction, dose response, CellTiter-Glo luminescence (AID 1117323); assay type: functional, cell-based
[5] = cytotoxicity toward Colo320 cells – cell-based, CellTiter-Glo luminescence, IC50, dose response (AID 1117334); assay type: functional; conditions: COLO 320
[6] = cytotoxicity toward HCT116 cells – cell-based, CellTiter-Glo luminescence, IC50, dose response (AID 1117332); assay type: functional; conditions: HCT-116
[7] = RKO cell viability reduction, dose response, CellTiter-Glo luminescence (AID 1117322); assay type: functional
[8] = CellTiter-Glo luminescent dose response of DLD-1 viability loss (AID 1117352); assay type: functional
[9] = cytotoxicity toward HT-29 cells – cell-based, CellTiter-Glo luminescence, IC50, dose response (AID 1117330); assay type: functional
[10] = Concentration-dependent survival of SW480 colon cancer line, luminescence detection with CellTiter-Glo, half-maximal inhibitory concentration (AID 1117338); assay type: functional
[11] = inhibitors of firefly luciferase expression or activity, dose response, H4 neuroglioma cells, luminescence (AID 1990); assay type: functional, cell-based
[12] = NIH-3T3 fibroblast cytotoxicity, dose response, cytotoxicity control, cell-based, fluorescence, Alamar Blue, secondary assay (AID 2327); assay type: functional;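 further: NIH-3T3 mouse fibroblasts cultured with fluconazole at 8 µg/mL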
[13] = inhibitors of SNCA 5'UTR-driven reporter translation, confirmation, H4 neuroglioma cells, luminescence (AID 1988); assay type: functional, cell-based
[14] = target: T1, Mucolipin-3 (Homo sapiens, UniProt Q8TDD5); assay: Dose response cell-based high-throughput screening assay for agonists of the transient receptor potential channel ML3 (TRPML3). [Related pubchem assays: 1526, 1424, 1448 ]; assay type: functional
T1 sequence (Q8TDD5 whole entry): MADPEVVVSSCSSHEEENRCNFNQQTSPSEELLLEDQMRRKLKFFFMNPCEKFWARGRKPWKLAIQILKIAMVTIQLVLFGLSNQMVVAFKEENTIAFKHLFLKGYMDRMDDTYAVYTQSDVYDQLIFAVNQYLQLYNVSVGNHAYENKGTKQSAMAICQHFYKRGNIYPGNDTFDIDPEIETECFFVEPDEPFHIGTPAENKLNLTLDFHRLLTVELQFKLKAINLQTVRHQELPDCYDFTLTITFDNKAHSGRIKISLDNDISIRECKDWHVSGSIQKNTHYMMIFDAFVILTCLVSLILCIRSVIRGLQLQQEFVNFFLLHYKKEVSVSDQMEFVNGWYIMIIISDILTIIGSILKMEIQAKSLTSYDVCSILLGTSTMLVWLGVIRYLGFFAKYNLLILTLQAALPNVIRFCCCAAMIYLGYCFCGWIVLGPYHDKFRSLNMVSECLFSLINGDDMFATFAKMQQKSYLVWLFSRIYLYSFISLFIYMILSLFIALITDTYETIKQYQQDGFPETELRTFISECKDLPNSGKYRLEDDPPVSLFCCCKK

[15] = C. albicans growth with fluconazole, confirmation, fluorescence, retest (AID 2467); assay type: functional, cell-based
[16] = target: Ion channel NompC (Danio rerio, UniProt Q7T1G6); assay: Fluorescence counterscreen assay for TRPML3 agonists: dose response cell-based high-throughput screening assay to identify agonists of the transient receptor potential channel N1 (TRPN1). [Related pubchem assays: 1526, 1424, 1448 ]; assay type: functional
[17] = Luminescence Cell-Based Dose Response HTS to Identify Inhibitors of 5'UTR Stem-Loop Driven Prion Protein mRNA Translation in H4 Neuroglioblastoma Cells. [Related pubchem assays: 1827 (Project Summary), 1813 (Primary HTS)]; assay type: functional
[18] = target: Cytochrome P450 3A4 (Homo sapiens, UniProt P08684); conditions: Potency;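 further: confirmatory qHTS run detecting inhibitors and substrates of CYP3A4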
[19] = HCT116 cell viability decrease, GSK3B pretreatment – CellTiter-Glo, IC50, dose response (AID 1117339); assay type: functional; conditions: HCT-116
[20] = P. falciparum Dd2 growth inhibitors, dose response, SYBR Green, cherry-picked samples (AID 1159567); assay type: functional, cell-based
[21] = cytotoxicity in HPDE-C7 cells, cell-based, fluorescence, HTS (AID 430); assay type: functional; conditions: Homo sapiens
[22] = cytotoxicity in KRAS-transformed pancreatic duct cells, primary screen, cell-based, fluorescence, HTS (AID 431); assay type: functional; conditions: Homo sapiens;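 further: cell line used: HPDE-C7K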

Sequence of Ion channel NompC (Q7T1G6 whole entry): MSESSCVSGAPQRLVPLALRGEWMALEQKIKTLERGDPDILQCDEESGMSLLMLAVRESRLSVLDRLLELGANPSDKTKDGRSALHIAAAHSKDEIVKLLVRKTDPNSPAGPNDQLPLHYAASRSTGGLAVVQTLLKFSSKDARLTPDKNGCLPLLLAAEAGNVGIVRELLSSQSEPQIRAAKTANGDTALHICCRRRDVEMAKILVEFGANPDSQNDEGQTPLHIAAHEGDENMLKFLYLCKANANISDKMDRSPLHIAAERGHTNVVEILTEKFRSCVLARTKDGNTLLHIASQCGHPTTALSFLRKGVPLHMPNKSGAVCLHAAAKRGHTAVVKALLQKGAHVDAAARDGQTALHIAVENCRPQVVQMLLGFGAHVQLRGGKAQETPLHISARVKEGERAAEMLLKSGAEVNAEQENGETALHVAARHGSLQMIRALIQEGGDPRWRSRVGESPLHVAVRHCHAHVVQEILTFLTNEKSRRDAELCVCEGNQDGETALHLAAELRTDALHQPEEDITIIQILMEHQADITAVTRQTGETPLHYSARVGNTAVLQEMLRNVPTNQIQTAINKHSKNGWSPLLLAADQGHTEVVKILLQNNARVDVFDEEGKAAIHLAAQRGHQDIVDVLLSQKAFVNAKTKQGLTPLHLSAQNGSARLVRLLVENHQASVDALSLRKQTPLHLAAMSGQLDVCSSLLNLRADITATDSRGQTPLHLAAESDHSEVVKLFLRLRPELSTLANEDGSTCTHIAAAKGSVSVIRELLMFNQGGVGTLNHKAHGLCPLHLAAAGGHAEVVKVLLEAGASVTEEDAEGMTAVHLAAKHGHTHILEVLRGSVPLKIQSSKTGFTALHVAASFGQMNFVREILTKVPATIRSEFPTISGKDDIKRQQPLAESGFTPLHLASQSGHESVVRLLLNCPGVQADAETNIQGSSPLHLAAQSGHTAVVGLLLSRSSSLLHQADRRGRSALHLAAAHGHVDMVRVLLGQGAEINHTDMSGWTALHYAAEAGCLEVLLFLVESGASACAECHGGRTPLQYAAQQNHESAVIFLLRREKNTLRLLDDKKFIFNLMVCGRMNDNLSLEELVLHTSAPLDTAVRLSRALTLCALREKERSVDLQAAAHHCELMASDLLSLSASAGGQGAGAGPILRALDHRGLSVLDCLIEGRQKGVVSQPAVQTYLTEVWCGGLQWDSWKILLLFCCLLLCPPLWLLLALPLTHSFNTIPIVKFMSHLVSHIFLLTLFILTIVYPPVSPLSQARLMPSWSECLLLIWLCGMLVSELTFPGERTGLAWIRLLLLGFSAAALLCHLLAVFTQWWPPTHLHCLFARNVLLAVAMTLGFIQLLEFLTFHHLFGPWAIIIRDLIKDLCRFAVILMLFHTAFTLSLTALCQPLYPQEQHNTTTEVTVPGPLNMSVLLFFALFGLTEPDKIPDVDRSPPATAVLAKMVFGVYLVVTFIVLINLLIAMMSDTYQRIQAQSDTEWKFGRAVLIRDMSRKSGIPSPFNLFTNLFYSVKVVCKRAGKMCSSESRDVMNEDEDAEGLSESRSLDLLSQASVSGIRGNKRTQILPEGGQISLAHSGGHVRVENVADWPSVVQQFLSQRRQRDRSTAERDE
Sequence of Peroxisome proliferator-activated receptor gamma/Nuclear receptor coactivator 1 (P37231 whole entry): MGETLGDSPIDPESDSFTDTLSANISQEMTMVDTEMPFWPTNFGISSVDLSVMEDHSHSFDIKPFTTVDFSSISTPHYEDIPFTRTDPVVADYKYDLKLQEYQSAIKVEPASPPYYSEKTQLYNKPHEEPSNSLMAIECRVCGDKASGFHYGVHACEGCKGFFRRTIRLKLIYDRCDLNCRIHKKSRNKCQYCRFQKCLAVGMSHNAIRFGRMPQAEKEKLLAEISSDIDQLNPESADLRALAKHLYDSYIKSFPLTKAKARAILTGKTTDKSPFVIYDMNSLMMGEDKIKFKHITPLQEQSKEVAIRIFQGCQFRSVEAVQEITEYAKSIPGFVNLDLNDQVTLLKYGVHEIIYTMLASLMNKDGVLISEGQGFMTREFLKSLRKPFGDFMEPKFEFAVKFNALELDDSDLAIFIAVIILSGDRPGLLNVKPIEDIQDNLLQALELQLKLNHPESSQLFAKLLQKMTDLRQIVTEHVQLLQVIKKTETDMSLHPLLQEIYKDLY
Sequence of Peroxisome proliferator-activated receptor gamma/Nuclear receptor coactivator 1 (Q15788 whole entry, further chain): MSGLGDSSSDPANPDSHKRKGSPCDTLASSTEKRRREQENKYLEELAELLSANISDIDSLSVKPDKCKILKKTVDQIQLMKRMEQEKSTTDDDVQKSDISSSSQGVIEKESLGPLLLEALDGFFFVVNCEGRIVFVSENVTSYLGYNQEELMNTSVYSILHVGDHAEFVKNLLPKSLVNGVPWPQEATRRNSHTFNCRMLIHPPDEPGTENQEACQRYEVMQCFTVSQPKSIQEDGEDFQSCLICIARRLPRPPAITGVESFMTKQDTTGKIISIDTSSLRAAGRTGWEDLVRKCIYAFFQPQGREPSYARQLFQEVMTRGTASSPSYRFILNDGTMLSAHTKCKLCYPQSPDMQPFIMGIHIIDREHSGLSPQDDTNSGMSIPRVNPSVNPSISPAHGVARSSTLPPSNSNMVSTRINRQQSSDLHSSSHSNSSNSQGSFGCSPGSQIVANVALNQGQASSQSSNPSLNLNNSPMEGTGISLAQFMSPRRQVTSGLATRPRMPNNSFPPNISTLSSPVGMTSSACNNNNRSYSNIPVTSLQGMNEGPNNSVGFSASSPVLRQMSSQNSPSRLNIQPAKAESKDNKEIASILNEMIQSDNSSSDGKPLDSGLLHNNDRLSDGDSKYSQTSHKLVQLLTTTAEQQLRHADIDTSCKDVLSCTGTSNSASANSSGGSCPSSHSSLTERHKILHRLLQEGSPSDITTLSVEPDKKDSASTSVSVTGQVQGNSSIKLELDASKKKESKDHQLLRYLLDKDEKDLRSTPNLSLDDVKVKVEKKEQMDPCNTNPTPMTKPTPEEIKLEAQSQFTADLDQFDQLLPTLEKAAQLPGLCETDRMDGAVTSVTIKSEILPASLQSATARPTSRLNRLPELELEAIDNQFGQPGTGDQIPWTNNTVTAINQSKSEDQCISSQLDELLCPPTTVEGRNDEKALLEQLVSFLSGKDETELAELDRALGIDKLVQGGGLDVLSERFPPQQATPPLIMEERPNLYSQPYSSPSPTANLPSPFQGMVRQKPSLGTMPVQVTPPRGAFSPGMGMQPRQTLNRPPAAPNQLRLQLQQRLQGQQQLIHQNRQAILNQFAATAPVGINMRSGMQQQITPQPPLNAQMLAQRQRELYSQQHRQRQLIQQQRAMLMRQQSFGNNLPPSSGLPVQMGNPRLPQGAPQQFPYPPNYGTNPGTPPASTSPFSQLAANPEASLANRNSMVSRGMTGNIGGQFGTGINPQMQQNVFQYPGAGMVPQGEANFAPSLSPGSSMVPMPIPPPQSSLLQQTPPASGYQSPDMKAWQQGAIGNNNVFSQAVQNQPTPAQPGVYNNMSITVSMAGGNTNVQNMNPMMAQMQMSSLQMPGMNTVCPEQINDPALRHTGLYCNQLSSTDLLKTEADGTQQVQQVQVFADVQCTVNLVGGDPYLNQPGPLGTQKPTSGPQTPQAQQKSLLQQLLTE
Sequence of Cytochrome P450 3A4 (P08684 whole entry): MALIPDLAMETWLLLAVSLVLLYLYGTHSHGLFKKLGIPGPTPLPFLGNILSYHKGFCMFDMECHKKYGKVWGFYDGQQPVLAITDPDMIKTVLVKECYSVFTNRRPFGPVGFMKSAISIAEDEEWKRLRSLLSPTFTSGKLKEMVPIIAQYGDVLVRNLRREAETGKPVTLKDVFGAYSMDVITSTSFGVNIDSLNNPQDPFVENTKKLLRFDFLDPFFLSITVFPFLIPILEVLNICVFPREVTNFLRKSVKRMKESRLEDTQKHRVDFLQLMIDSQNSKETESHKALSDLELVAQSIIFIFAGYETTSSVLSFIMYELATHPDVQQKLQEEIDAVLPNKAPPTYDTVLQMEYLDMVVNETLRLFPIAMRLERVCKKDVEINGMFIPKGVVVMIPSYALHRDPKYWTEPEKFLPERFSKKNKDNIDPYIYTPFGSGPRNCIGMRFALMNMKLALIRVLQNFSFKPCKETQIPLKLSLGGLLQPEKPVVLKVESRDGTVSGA

| SMILES | IC50 [5] | IC50 [6] | IC50 [7] | IC50 [8] | IC50 [9] | IC50 [10] | further results |
| --- | --- | --- | --- | --- | --- | --- | --- |
| O=c1[nH]n(-c2ccccc2)c(=O)c2ccccc12 | – | – | – | – | – | – | EC50 [1]: > 79.4 µM (not active); EC50 [2]: > 79.4 µM (not active); EC50 [3]: > 79.4 µM (not active) |
| CN(C)c1ccc(C(=C2C=CC(=[N+](C)C)C=C2)c2ccc(N(C)C)cc2)cc1 [GENTIAN VIOLET] | 2.05 µM (active) | 0.514 µM (active) | 0.994 µM (active) | 0.471 µM (active) | 0.466 µM (active) | 0.528 µM (active) | IC50 [4]: 0.394 µM (active) |
| CCOc1ccc2c(c1)C(C)=CC(C)(C)N2S(=O)(=O)c1ccc(C)cc1 | – | – | – | – | – | – | EC50 [11]: 1.36 µM (active); EC50 [12]: > 160 µM (inactive); EC50 [13]: 0.497 µM (active); EC50 [14]: > 29.9 µM (not active); EC50 [15]: > 38 µM (not active); EC50 [16]: > 29.9 µM (not active); EC50 [17]: 0.147 µM (active) |
| Cc1ccc(S(=O)(=O)N2CCN(C)CC2)c(C)c1N(C)S(=O)(=O)c1ccc(Cl)cc1 | – | – | – | – | – | – | EC50 [14]: 3.34 µM (active); EC50 [16]: > 29.9 µM (not active) |
| COc1ccc(C(=O)c2ccccc2O)c(O)c1 [DIOXYBENZONE] | > 20 µM (inactive) | > 20 µM (inactive) | > 20 µM (inactive) | > 20 µM (inactive) | > 20 µM (inactive) | > 20 µM (inactive) | – |
| CCN1C[C@@]2(C)CC[C@@H](OC)[C@@]34C2C(O)[C@@]2(OCO[C@]25CC(OC)C2C[C@@]3(O)C5C2O)C14 (some centres not stated) | – | – | – | – | – | – | AC50 [18]: 39.8 µM (inconclusive) |
| CC1CCC(C(C)C)C(OC(=O)c2ccccc2O)C1 (configuration not stated) | > 20 µM (inactive) | > 20 µM (inactive) | > 20 µM (inactive) | > 20 µM (inactive) | > 20 µM (inactive) | > 20 µM (inactive) | IC50 [4]: > 20 µM (inactive); IC50 [19]: > 20 µM (inactive) |
| CCC1Nc2cc(Cl)c(S(N)(=O)=O)cc2S(=O)(=O)N1 (configuration not stated) [ETHIAZIDE] | > 20 µM (inactive) | > 20 µM (inactive) | > 20 µM (inactive) | > 20 µM (inactive) | > 20 µM (inactive) | > 6.67 µM (inactive) | IC50 [4]: > 20 µM (inactive); IC50 [19]: > 20 µM (inactive) |
| COc1ccc(CN2CC3(CCN(C(=O)c4ccccc4)CC3)c3c([nH]c4cc(OC)ccc34)[C@@H]2CO)cc1 | – | – | – | – | – | – | AC50 [20]: 3 µM (active) |
| O=S(=O)(Cc1cc(Cl)nc(-c2ccccc2)n1)c1ccccc1 | – | – | – | – | – | – | EC50 [14]: 5.36 µM (active); EC50 [16]: > 29.9 µM (not active) |
| COc1ccc(N(Cc2cc3cc(OC)ccc3nc2O)S(C)(=O)=O)cc1 | – | – | – | – | – | – | EC50 [21]: > 20 µM (not active); EC50 [22]: > 20 µM (not active) |
